Source: patent US20050282863A1, “Novel-N substituted dihydrobenzothiepino, dihydrobenzoxepino and tetrahydro benzocyclohepta indoles as selective estrogen receptor modulators” (Council of Scientific & Industrial Research, priority 2004, published 2005)

Tests used:
[1] = test system: immature ovariectomized rats; assay: Estrogen agonistic activity: increase in uterine weight in immature ovariectomized rats; assay type: in vivo, rat; conditions: 3 days, percent of ovariectomized + vehicle group; for change in vivo at 3 mg/kg: daily dose 3 mg/kg
[2] = test system: chick fetal bones in culture; assay: Inhibition in PTH-induced resorption of 45Ca from chick fetal bones in culture (antiresorptive activity in vitro); assay type: cell-based; conditions: Gallus gallus, 96 h, PTH-induced 45Ca resorption, 96 h culture, read-out: T/C ratio
Procedure: 5 μl of each concentration are used for evaluation of antiresorptive activity in vitro. In control experiments, 5 μl of appropriate solvent is used in lieu of the test compound. Femur bones are isolated from chick embryos on day 11 post-ovulation. The adhering soft connective tissue is completely removed. Each femur bone is then placed in a drop of phosphate buffered saline (PBS) and is transferred to BGJb culture medium containing ^45CaCl2 and incubated for 2 h. Labeled femur bones are washed 2-3 times with PBS and transferred to BGJb medium containing parathyroid hormone and cultured for 96 h in the presence or absence of the compound of invention or the vehicle in BGJb medium. Contralateral femur of each fetus serves as corresponding control. Culture medium with the respective treatment in each well is changed after 48 h. On termination of the culture at 96 h, bones are transferred to 0.1 N HCl for 24 h. Radioactivity due to ^45Ca in the spent medium collected at 48 and 96 h of culture and HCl extract at 96 h of culture is quantified by Liquid Scintillation Spectrophotometer in 10 ml of the scintillation fluid. Bone resorbing activity is expressed as percentage of ^45Ca released into the culture medium and the effect of the compound of invention as percent of the corresponding contra-lateral control or T/C ratio as shown below: [formula]
Appropriate solvents are selected from solvents like water, physiological saline, phosphate buffered saline, phosphate buffer, DMSO alone or in a suitable combination thereof.

**Q.** `c1ccc2c(c1)SCCc1c-2n(CCCCCCN2CCCCC2)c2ccccc12` [Example number 18, 12-[6-(Piperidine-1-yl)hexyl]-6,7-dihydro-12H-benzothiepino [5,4-b]indole] was tested. Which change in vivo at 3 mg/kg ([1]; Rattus norvegicus, 72 h) did it give?
**A.** 1.76%

**Q.** What about the change in vivo at 10 mg/kg ([1]; Rattus norvegicus, 72 h, daily dose 10 mg/kg) of the same compound?
**A.** 51%

**Q.** What about the activity at 100 µM ([2]; 100 μM) of the same compound?
**A.** 160%

**Q.** What does the source list for `CCCCN(C)CCCCCn1c2c(c3ccccc31)CCSc1ccccc1-2` [Example number 13, 12-[5-(N-butylmethylamino)pentyl]-6,7-dihydro-12H-benzothiepino [5,4-b]indole]?
**A.** change in vivo at 1 mg/kg ([1]; Rattus norvegicus, 72 h, daily dose 1 mg/kg): 8%; change in vivo at 3 mg/kg ([1]; Rattus norvegicus, 72 h): 2.53%; Percent increase in uterine weight ([1]; daily dose 10 mg/kg): 126.00%; activity at 25 µM ([2]; 25 μM): 33%; activity at 50 µM ([2]; 50 μM): 41%; activity at 200 µM ([2]; 200 μM): 61%
